Measurements taken from article PMC2917178 (Biochemistry, 2010).
“Also recorded” adds a separate entry of the source. Like-named read-outs stand apart in the source and are kept apart here.

How the values were obtained:
Rtt109-Vps75 [1] = molecular target: T1, Rtt109-Vps75 (Saccharomyces cerevisiae, UniProt P53853+Q07794); assay: Isothermal titration calorimetry into Rtt109-Vps75; type: binding, yeast (Saccharomyces cerevisiae)
T1 sequence (Q07794 1-436): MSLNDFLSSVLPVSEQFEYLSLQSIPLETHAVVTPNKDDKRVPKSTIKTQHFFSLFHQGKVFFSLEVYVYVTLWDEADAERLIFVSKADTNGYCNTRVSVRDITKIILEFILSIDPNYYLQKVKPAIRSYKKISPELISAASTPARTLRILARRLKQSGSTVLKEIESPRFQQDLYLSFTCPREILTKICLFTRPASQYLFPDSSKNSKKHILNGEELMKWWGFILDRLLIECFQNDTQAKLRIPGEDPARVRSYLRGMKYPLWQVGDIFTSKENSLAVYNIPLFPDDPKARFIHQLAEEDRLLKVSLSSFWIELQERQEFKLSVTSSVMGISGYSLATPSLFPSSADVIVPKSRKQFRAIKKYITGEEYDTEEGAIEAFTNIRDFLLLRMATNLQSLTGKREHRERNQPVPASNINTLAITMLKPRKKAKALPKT
T1 sequence (P53853 1-264 partner): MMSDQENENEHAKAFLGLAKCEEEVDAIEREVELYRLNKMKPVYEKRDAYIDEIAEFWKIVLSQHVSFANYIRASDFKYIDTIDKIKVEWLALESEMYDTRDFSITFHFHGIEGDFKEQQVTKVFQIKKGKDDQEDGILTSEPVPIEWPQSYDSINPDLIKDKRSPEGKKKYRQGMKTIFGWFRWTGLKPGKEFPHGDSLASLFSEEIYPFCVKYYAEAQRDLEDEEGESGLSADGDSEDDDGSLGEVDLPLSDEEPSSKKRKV

[2] = molecular target: Rtt109 D287N (with Vps75) (Saccharomyces cerevisiae, UniProt P53853+Q07794, D287N); type: biochemical, yeast (Saccharomyces cerevisiae); conditions: AcCoA varied 0.5-30 μM, 400 μM H3 peptide, 0.1-0.5 μM Rtt109 variant, 4 μM Vps75, 50 mM Tris pH 7.5, 25 °C
[3] = molecular target: Rtt109 D288N (with Vps75) (Saccharomyces cerevisiae, UniProt P53853+Q07794, D288N); type: biochemical, yeast (Saccharomyces cerevisiae); conditions: AcCoA varied 0.5-30 μM, 400 μM H3 peptide, 0.1-0.5 μM Rtt109 variant, 4 μM Vps75, 50 mM Tris pH 7.5, 25 °C
Rtt109-Vps75 [4] = molecular target: T1, Rtt109-Vps75; assay: CoA product inhibition of Rtt109-Vps75; type: biochemical, yeast (Saccharomyces cerevisiae)
[5] = Stability of Rtt109 alone; type: physicochemical; conditions: without AcCoA or Vps75, 25°C
Rtt109 = assay: HAT activity with fluorescein-labeled Vps75; type: biochemical, yeast; conditions: fluorescein-5-maleimide labeled Vps75, 1:1 label to Vps75
p300 = conditions: cited from earlier work

Rtt109 D287N (with Vps75), sequence (Q07794 whole entry D287N, one chain of several): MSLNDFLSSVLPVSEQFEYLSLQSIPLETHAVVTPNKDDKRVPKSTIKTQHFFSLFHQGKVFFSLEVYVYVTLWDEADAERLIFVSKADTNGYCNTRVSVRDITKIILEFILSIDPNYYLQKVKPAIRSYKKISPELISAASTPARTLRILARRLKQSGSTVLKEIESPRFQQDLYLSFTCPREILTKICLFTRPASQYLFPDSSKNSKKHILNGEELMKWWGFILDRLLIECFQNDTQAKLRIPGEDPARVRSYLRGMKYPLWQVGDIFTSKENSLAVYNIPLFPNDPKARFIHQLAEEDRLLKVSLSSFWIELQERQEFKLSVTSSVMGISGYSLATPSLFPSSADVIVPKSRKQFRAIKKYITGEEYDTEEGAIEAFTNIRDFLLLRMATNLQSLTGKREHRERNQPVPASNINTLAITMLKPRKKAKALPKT
Rtt109 D288N (with Vps75), sequence (Q07794 whole entry D288N, one chain of several): as the sequence (Q07794 whole entry D287N, one chain of several) above, with N287D, D288N counted along it

With CC(=O)SCCNC(=O)CCNC(=O)[C@H](O)C(C)(C)COP(=O)(O)OP(=O)(O)OC[C@H]1O[C@@H](n2cnc3c(N)ncnc32)[C@H](O)[C@@H]1OP(=O)(O)O [AcCoA, acetyl-Coenzyme A] as the molecule, how does the Kd (Rtt109-Vps75 [1]; 167 μM AcCoA titrated into 5.8 μM Rtt109-Vps75, 50 mM Tris pH 7.5 at 25°C, 5% glycerol, 50 mM NaCl, 2 mM β-mercaptoethanol, 1 mM EDTA, one-site model) read?
Its Kd is 1.4 ± 0.3 µM.

And the “binding affinity for AcCoA over CoA” value (Rtt109-Vps75 [1]; ratio of binding affinities, Rtt109-Vps75)?
Its value is 30 fold.

And the Km [2]?
The Km was 0.7 ± 0.3 µM.

And the kcat [2]?
The kcat was 1.2 ± 0.1 × 10^-2 s^-1.

And the kcat/Km [2]?
The kcat/Km was 1.7 ± 0.7 × 10^4 M^-1s^-1.

What about the Km [3] of the same molecule?
Its Km is 4.9 ± 0.9 µM.

What about the kcat [3] of the same molecule?
Its kcat is 2.8 ± 0.2 × 10^-3 s^-1.

And the kcat/Km [3]?
Its kcat/Km is 6 ± 1 × 10^2 M^-1s^-1.

With CC(C)(COP(=O)(O)OP(=O)(O)OC[C@H]1O[C@@H](n2cnc3c(N)ncnc32)[C@H](O)[C@@H]1OP(=O)(O)O)[C@@H](O)C(=O)NCCC(=O)NCCS [CoA, Coenzyme A] as the molecule, how does the Ki (Rtt109-Vps75 [4]) read?
Its Ki is 110 ± 20 µM.

And the “product inhibition pattern versus AcCoA” value (Rtt109-Vps75 [4]; varied AcCoA, fixed CoA, 5 μM full-length H3, double reciprocal plot)?
Its value is “binds competitively with AcCoA; also recorded: competitive inhibition”.

And the Kd (Rtt109-Vps75 [1])?
The Kd was 43 ± 5 µM.

With “Rtt109: yeast histone acetyltransferase, Regulator of Ty1 Transposition 109” as the molecule, how does the “stability of protein alone” value [5] read?
The value was “unstable and precipitates at 25 °C; also recorded: unstable protein and is highly prone to aggregation”.

With “labeled Vps75: Vps75 labeled with fluorescein-5-maleimide, 1:1” as the molecule, how does the “loss in HAT activity on fluorescein labeling” value (Rtt109) read?
Its value is < 2 fold.

For “p300: mammalian HAT, structural homolog of Rtt109”, which “pKa of ionizable group required for catalysis” value (p300) is on record?
The value was 8.4.
